According to patent publication US20100087413A1, “Prevention and treatment of inflammation-induced and/or immune-mediated bone loss” (priority 2003, published 2010):
Like-named read-outs stand apart in the source and are kept apart here. Marks after values point to notes of the source that are not given here.

Columns and labels:
human 11β-HSD2 = target: T1, human 11β-HSD2 (Homo sapiens, UniProt P80365); test: 11β-HSD2 oxidase activity (conversion of radiolabelled cortisol to cortisone) in lysates of stably transfected HEK-293 cells; format: biochemical; conditions: for 11β-HSD2 % of control: 20 μM compound, 25 nM cortisol substrate, HEK-293 lysate
T1 construct: expressed in transfected cells; host or cells: HEK-293 cells, stably transfected; cell lysate
T1 sequence (P80365 1-405): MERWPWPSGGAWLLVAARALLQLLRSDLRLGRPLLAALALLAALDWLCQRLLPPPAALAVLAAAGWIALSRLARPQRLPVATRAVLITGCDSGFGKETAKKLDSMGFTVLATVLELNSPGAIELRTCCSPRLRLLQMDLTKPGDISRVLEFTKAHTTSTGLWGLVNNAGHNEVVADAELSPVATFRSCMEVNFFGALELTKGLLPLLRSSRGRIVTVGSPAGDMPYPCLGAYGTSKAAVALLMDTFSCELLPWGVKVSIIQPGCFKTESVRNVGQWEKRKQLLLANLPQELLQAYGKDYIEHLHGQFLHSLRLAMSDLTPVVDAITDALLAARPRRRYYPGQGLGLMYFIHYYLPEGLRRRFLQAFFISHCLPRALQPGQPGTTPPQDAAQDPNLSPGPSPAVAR
Procedure: (§1) Cells were grown in 10 cm dishes to 80% confluence and incubated for 16 h in steroid-free medium (charcoal-treated fetal calf serum (FCS) from HyClone, Logan, Utah). Cells were rinsed once with phosphate-buffered saline (PBS), detached and centrifuged for 3 min at 150×g. The supernatant was removed and the cell pellet quick-frozen in a dry-ice ethanol bath. At the day of experiment, cell pellets were resuspended in buffer TS2 (100 mM NaCl, 1 mM EGTA, 1 mM EDTA, 1 mM MgCl2, 250 mM sucrose, 20 mM Tris-HCl, pH 7.4), sonicated and activities determined immediately. The rate of conversion of cortisol to cortisone or the reverse reaction was determined in 96-well optical PCR reaction plates (Applied Biosystems, Foster City, Calif.) in a final volume of 22 μl, and the tubes were capped during the reaction to avoid evaporation.
Reactions were initiated by simultaneously adding 10 μl of cell lysate and 12 μl of TS2 buffer containing the appropriate concentration of the inhibitory compound to be tested, NAD^+, 30 nCi of [1,2,6,7-^3H]-cortisol and unlabeled cortisol. […] Stock solutions of the inhibitors in methanol or DMSO were diluted in TS2 buffer to yield the appropriate concentrations, whereby the concentration of methanol or DMSO in the reactions were kept below 0.1%. Control reactions with or without 0.1% of the solvent were performed. Incubation was at 37° C. for 10 min with shaking, reactions were terminated by adding 10 μl of stop solution containing 2 mM of unlabeled cortisol and cortisone dissolved in methanol. The conversion of radiolabeled cortisol was determined by separation of cortisol and cortisone using TLC and a solvent system of 9:1 (v/v) chloroform:methanol, followed by scintillation counting.
(§2) Enzyme kinetics were analyzed by non-linear regression using Data Analysis Toolbox (MDL Information Systems Inc.) assuming first-order rate kinetics.
(§3) Assay with 20 μM of the corresponding compound in the reaction mixture, added simultaneously with the substrate:
(§4) Determination of IC50 values, using 7 different inhibitor concentrations at factor 2 intervals: […]

human 11β-HSD1 = target: T2, human 11β-HSD1 (Homo sapiens, UniProt P28845); test: 11β-HSD1 reductase activity (conversion of radiolabelled cortisone to cortisol) in lysates of stably transfected HEK-293 cells; format: biochemical; conditions: for 11β-HSD1 % of control: 20 μM compound, 100 nM cortisone substrate, HEK-293 lysate
T2 construct: expressed in transfected cells; host or cells: HEK-293 cells, stably transfected; cell lysate
Procedure: as §1
Reactions were initiated simultaneously by adding 10 μl of cell lysate and 12 μl of TS2 buffer containing the appropriate concentration of the inhibitory compound to be tested, NADPH, 30 nCi of [1,2,6,7-^3H]-cortisone and unlabeled cortisone, whereby final concentrations were 400 μM NADPH and 100 nM cortisone. Activities were determined immediately after cell disruption by measuring the conversion of radiolabeled cortisone to cortisol for 10 min.
as §2, §3, §4

[1] = tested on: Adjuvant-Induced Arthritis (AIA); test: Adjuvant-induced arthritis (AIA), histology of hind joint sections from arthritic rats; format: in vivo; conditions: rat AIA, injected i.d. early (day0, day2, day4) or late (day9, day11, day13)
From the text: An intradermal injection, at the base of the tail, with heat killed Mycobaterium tuberculosum in incomplete Feund's Adjuvans results in destructive arthritis within 14 days in susceptible DA or LEW inbred rat strains. AIA can also be induced with cell walls from other bacterial types in IFA, although the arthritogenicity varies. Increased synthesis of tumor necrosis factor a (TNF-a), interleukin 1 (IL-1) and IL-6 is detected as early as day four after adjuvant injection. The disease progresses rapidly over several weeks in what appears clinically to be a monophasic process.
BX-1 early: BX-1 injected i.d. at the time of disease induction (day0) and day2, day4 BX-1 late: BX-1 injected i.d. at first signs of arthritis, day9, day11, day13.
Samples are from both left and right hind limb of three rats per group of a representative experiment
Rat ankle slides were histologically evaluated according to five criteria (blind evaluation by DL Boyle et al., University of California in San Diego, (J. Immunol., January 2002; 168: 51-56.): • 1. Extra-articular inflammation • 2. Bone marrow inflammation (BM) • 3. Synovial inflammation • 4. Cartilage/bone erosion • 5. Proteoglycan damage

[2] = 7 inhibitor concentrations at factor 2 intervals
[3] = Mittelwert (mean) of determinations 1-3, read-out: IC 50 11β-HSD1, Mittelwert
[4] = Mittelwert (mean) of the determinations, read-out: IC 50 11β-HSD2, Mittelwert

T2 sequence (P28845 whole entry): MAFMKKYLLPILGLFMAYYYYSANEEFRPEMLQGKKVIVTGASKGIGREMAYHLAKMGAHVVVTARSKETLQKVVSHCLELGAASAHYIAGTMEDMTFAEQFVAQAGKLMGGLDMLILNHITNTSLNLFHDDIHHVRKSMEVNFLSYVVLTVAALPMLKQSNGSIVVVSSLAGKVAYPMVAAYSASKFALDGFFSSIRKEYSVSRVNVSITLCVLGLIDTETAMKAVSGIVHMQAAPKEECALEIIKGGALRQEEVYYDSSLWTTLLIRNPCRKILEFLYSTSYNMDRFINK

11β-HSD2 % of control (human 11β-HSD2) | 11β-HSD1 % of control (human 11β-HSD1) | SMILES | other results
96.77 % of control | 102.1 % of control | CCN(CC(O)COc1cc(C)c(Cl)c(C)c1)S(=O)(=O)O (centres unmarked) [BNW1] | –
77.95 % of control | 78.84 % of control | COc1ccc(OC)c(C2C(C(=O)c3ccc(Br)cc3)=C(O)C(=O)N2CCCn2ccnc2)c1 (centres unmarked) [BNW2] | –
53.57 % of control | 60.25 % of control | CCCCOc1ccc(C(=O)C2=C(O)C(=O)N(CCOC)C2c2cccnc2)c(C)c1 (centres unmarked) [BNW3] | –
95.05 % of control | 82.24 % of control | Cc1nn(CC(=O)Nc2sc(C)c(C)c2C(N)=O)c(C)c1[N+](=O)[O-] [BNW4] | –
97.47 % of control | 69.75 % of control | Cc1n[nH]c(O)c1C(c1ccc(-c2ccc(Cl)c(C(=O)O)c2)o1)c1c(O)n[nH]c1C [BNW5] | –
145 % of control | 79.64 % of control | COc1ccc(C(=O)CNc2cccc(Cl)c2Cl)c(C(F)(F)F)c1 [BNW6] | –
139.5 % of control | 9.593* % of control | COc1ccc(CCNC(=O)C23CCC(C)(C(=O)C2=O)C3(C)C)cc1OC (centres unmarked) [BNW7] | IC 50 11β-HSD2, determination 1 (human 11β-HSD2; [2]): did not inhibit; IC 50 11β-HSD2, determination 2 (human 11β-HSD2; determination 2, 7 inhibitor concentrations at factor 2 intervals): did not inhibit; IC 50 11β-HSD2, determination 3 (human 11β-HSD2; determination 3, 7 inhibitor concentrations at factor 2 intervals): did not inhibit; IC50 (human 11β-HSD1; [3]): 2030 nM
102.7 % of control | 41.71 % of control | NC(=O)c1c(NC(=O)C2CC=CCC2C(=O)O)sc2c1CCCCC2 (centres unmarked) [BNW8] | –
77.43 % of control | 30.65 % of control | COCCC1C(=O)C(O)=C(C(=O)c2ccc(OC)c(C)c2)C1c1ccc(Cl)cc1Cl (centres unmarked) [BNW9] | –
120.9 % of control | 70.1 % of control | Cc1cccc(C)c1C1C(SCC(=O)Nc2c(Cl)cccc2Cl)=NN=C1c1cccc([S+]([O-])N(C)C)c1 (centres unmarked) [BNW11] | –
132.1 % of control | 85.36 % of control | CCN(CC)S(=O)(=O)c1ccc(Cl)c(C(=O)Nc2nc3ccc(S(C)(=O)=O)cc3s2)c1 [BNW12] | –
14.37* % of control | 3.879* % of control | COC(=O)[C@@]1(C)CC[C@]2(C)CC[C@]3(C)C(=CC(=O)[C@@H]4[C@@]5(C)CC[C@H](Oc6ccccc6C(=O)O)C(C)(C)[C@@H]5CC[C@]43C)[C@@H]2C1 [BNW13] | IC50 (human 11β-HSD2; [4]): 281 nM; IC 50 11β-HSD2, determination 1 (human 11β-HSD2; [2]): out of range; IC50 (human 11β-HSD1; [3]): 691 nM
56.95 % of control | 50.37 % of control | CC1(C)[C@@H](OCO)CC[C@]2(C)[C@H]3C(=O)C=C4C5=C[C@@](C)(C(=O)O)CC[C@]5(C)CC[C@@]4(C)[C@]3(C)CC[C@@H]12 [BNW15] | –
120.1 % of control | 88.22 % of control | CCOc1ccc(C2c3cc(OCC)c(OCC)cc3CC(=O)N2c2ccc(C(=O)O)cc2)cc1OCC (centres unmarked) [BNW17] | –
82.81 % of control | 92.03 % of control | CSc1nc2cc(C)c(C)cc2n1C1OC(CO)C(O)C1O (centres unmarked) [BNW18] | –
120.7 % of control | 46.83 % of control | COCCN1C(=O)C(O)=C(C(=O)c2ccc(OC)c(C)c2)C1c1ccc(C)cc1 (centres unmarked) [BNW20] | –
121.6 % of control | 48.94 % of control | COc1ccc(C(=O)C2=C(O)C(=O)N(CCCn3ccnc3)C2c2ccccc2)cc1Cl (centres unmarked) [BNW21] | –
104.3 % of control | 41.32 % of control | CCOc1ccc(C2C(C(=O)c3ccc(Cl)cc3)=C(O)C(=O)N2CCCn2ccnc2)cc1OCC (centres unmarked) [BNW22] | –
132.6608 % of control | 85.07 % of control | COc1cccc(/C=N/NC(=O)CSCc2ccccc2C)c1OC [BNW23] | –
13.93* % of control | 2.884* % of control | C[C@H]1CC[C@]2(C)[C@H]3C(=O)C=C4[C@@H]5C[C@@](C)(C(=O)O)CC[C@]5(C)CC[C@@]4(C)[C@]3(C)CC[C@H]2C1(C)C [BNW25] | IC50 (human 11β-HSD2; [4]): 59.7 nM; IC 50 11β-HSD2, determination 1 (human 11β-HSD2; [2]): out of range; IC50 (human 11β-HSD2; determination 2, 7 inhibitor concentrations at factor 2 intervals, read-out: IC 50 11β-HSD2, determination 2): 54.6 nM; IC50 (human 11β-HSD2; determination 3, 7 inhibitor concentrations at factor 2 intervals, read-out: IC 50 11β-HSD2, determination 3): 64.9 nM; IC50 (human 11β-HSD1; [3]): 172 nM; IC50 (human 11β-HSD1; determination 1, 7 inhibitor concentrations at factor 2 intervals, read-out: IC 50 11β-HSD1, determination 1): 147 nM; IC50 (human 11β-HSD1; determination 2, 7 inhibitor concentrations at factor 2 intervals, read-out: IC 50 11β-HSD1, determination 2): 206 nM; IC50 (human 11β-HSD1; determination 3, 7 inhibitor concentrations at factor 2 intervals, read-out: IC 50 11β-HSD1, determination 3): 161 nM
136.8 % of control | 94.07 % of control | COc1ccc(CNC(=O)C2CCC(=O)N2C2CCCC2)cc1OC (centres unmarked) [BNW26] | –
137 % of control | 76.73 % of control | COc1cc(/C=N/NC(=O)CSc2nc3ccccc3n2Cc2ccc(C)cc2)cc(OC)c1OC(C)=O [BNW28] | –
115.4 % of control | 75.29 % of control | CCN(CC)S(=O)(=O)c1ccc(OC)c(-c2nnc(-c3cc(S(=O)(=O)N(CC)CC)ccc3OC)o2)c1 [BNW29] | –
140 % of control | 48.36 % of control | CCC(Sc1nnc(-c2ccc(OC)c(OC)c2)c(-c2ccc(OC)c(OC)c2)n1)C(=O)N(CC)CC (centres unmarked) [BNW30] | –
– | – | CC1(C)[C@@H](O)CC[C@]2(C)[C@H]3C(=O)C=C4[C@@H]5C[C@@](C)(C(=O)O)CC[C@]5(C)CC[C@@]4(C)[C@]3(C)CC[C@@H]12 [BX-1, 18-β-glycyrrhetinic acid] | influence on the pathology of arthritis (T-cell and dendritic cell activation, systemic inflammation, bone marrow infiltration) [1]: positively influence all arms of the pathology of arthritis

SMILES | 11β-HSD2 % of control (human 11β-HSD2) | 11β-HSD1 % of control (human 11β-HSD1) | other results
CC(=O)OC1CC[C@]2(C)C3=C(C(=O)C[C@H]2C1(C)C)[C@]1(C)CCC(C(C)CCC(=O)O)[C@@]1(C)CC3=O (some centres unmarked) [BNW16] | 27.37 % of control | 2.708* % of control | IC50 (human 11β-HSD2; [4]): 3950 nM; IC 50 11β-HSD2, determination 1 (human 11β-HSD2; [2]): out of range; IC50 (human 11β-HSD1; [3]): 144 nM
COc1cc2c(cc1OC)C(COc1ccc([N+](=O)[O-])cc1)N(C(=O)c1ccc(Cl)c([N+](=O)[O-])c1)CC2 (centres unmarked) [BNW27] | 126.4 % of control | 78.64 % of control | –
